Patent US20250092052A1, “HETEROARYL DERIVATIVE COMPOUNDS, AND USES THEREOF” (VORONOI INC., priority 2023, published 2025)

What was measured:
human PKMYT1 enzyme = human PKMYT1 enzyme (Homo sapiens (Human), UniProt Q99640); assay: Inhibitory activity against PKMYT1 kinase (ADP-Glo kinase assay); assay type: biochemical; conditions: purified human PKMYT1, ATP, CDK1 substrate, 25° C., 1 hour
Experimental: To evaluate the inhibitory activity of the compounds synthesized according to the above Examples against PKMYT1 kinase, the Example compounds were reacted with purified human PKMYT1 enzyme and assessed using the following method.
The reaction buffer was used as a composition of 200 mM Tris-HCl pH 7.4, 100 mM MgCl2, 0.5 mg/mL BSA, 0.25 mM DTT, and the reactions of all the tests were carried out on the reaction buffer.
The compound was diluted in 12 steps using a serial dilution method from a 10 mM DMSO stock, and the enzyme activity was measured at a final compound concentration of 10˜0.00005645 μM. During the test, the enzyme activity was confirmed using in vitro ADP-Glo™kinase assay (Promega) after reacting with the proper concentration of PKMYT1 enzyme, purified ATP, and enzyme substrate (CDK1) at 25° C. for 1 hour. At a ratio of 2:2:1, an enzyme-active reaction solution, an ADP-Glo reaction solution, and an enzyme-active detection solution were reacted to measure the inhibition of the enzyme's activity with luminescence. Based on the […] of the enzyme activity of the solvent control that was not treated with the compound, the degree of enzyme activity inhibition was calculated according to the treatment concentration of each compound, and the concentration of each compound that inhibits 50% of enzyme activity was determined as IC50 (nM) value and the value was obtained by using GraphPad Prism 8.3.0 (GraphPad software Inc., San Diego) software.

Myt1-KD = Myt1-KD (Homo sapiens (Human), UniProt Q99640); assay: Thermal Shift Assay, compound binding to Myt1-KD; conditions: 2 μM protein, 100 μM compound, Tm of compound minus Tm of DMSO
Chain of Myt1-KD (Q99640 110-359): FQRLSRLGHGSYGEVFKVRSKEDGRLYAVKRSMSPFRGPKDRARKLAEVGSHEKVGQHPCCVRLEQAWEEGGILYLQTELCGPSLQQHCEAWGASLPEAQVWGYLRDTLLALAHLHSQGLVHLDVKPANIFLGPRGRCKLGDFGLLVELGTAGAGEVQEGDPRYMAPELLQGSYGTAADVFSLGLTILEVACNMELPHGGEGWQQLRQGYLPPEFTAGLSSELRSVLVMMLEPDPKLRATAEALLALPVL
Experimental: The degree of compound binding to Myt1-KD was tested using a Thermal Shift Assay. Each protein was diluted to a concentration of 2 μM in 50 mM Tris (pH 7.5) with 100 μM of the compound. SYPRO™ Orange dye was added to the solution, and the plate was transferred to a QuantStudio3 Real-Time PCR System (Applied Biosystems by Thermo Fisher Scientific). […] The degree of protein melting in the presence of the compound compared to DMSO was calculated according to the following Equation 1. ΔTm=Tm (Temperature of Example compound)−Tm (Temperature of DMSO) [Equation 1]

Chain of human PKMYT1 enzyme (Q99640 whole entry): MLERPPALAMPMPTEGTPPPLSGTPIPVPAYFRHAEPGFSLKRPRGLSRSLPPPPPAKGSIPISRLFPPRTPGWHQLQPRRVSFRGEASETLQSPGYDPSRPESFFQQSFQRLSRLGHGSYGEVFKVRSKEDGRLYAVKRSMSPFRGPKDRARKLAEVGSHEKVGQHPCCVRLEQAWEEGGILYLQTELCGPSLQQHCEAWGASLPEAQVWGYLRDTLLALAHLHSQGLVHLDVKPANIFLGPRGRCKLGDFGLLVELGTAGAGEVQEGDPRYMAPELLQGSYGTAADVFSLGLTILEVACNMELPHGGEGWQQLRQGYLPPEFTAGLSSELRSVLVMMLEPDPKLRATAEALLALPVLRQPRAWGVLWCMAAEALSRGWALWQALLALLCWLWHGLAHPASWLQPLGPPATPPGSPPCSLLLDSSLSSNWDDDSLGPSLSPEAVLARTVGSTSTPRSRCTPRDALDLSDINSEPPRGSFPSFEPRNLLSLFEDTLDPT

IC50 (human PKMYT1 enzyme) [nM] | ΔTm (° C.) (Myt1-KD) | ΔTm at 100 µM (Myt1-KD) [°C] | SMILES
 | B (5 °C ≥ ΔTm (° C.)) |  | Cc1ccc(O)c(C)c1-n1c(N)c(C(=O)c2cc3ccccc3[nH]2)c2nc(C)c(C)nc21 (atropisomer, axis not shown) [Example 10, (R)-(6-amino-5-(3-hydroxy-2,6-dimethylphenyl)-2,3-dimethyl-5H-pyrrolo[2,3-b]pyrazin-7-yl)(1H-indol-2-yl)methanone]
 |  | ≤ 5 | Cc1ccc(O)c(C)c1-n1c(N)c(C(=O)c2cc3cc(N4CCN(C)CC4)ccc3[nH]2)c2nccnc21 (atropisomer, axis not shown) [Example 21, (S)-(6-amino-5-(3-hydroxy-2,6-dimethylphenyl)-5H-pyrrolo[2,3-b]pyrazin-7-yl)(5-(4-methylpiperazin-1-yl)-1H-indol-2-yl)methanone]
 |  | ≤ 5 | Cc1ccc(O)c(C)c1-n1c(N)c(C(=O)c2cc3occc3[nH]2)c2nc(C)c(C)nc21 (atropisomer, axis not shown) [Example 17, (S)-(6-amino-5-(3-hydroxy-2,6-dimethylphenyl)-2,3-dimethyl-5H-pyrrolo[2,3-b]pyrazin-7-yl)(4H-furo[3,2-b]pyrrol-5-yl)methanone]
≤ 200 |  | ≥ 5 | Cc1ccc(O)c(C)c1-n1c(N)c(C(=O)c2cc3ccccc3[nH]2)c2nccnc21 (single isomer, unassigned) [Example 1]
 |  | ≥ 5 | Cc1ccc(O)c(C)c1-n1c(N)c(C(=O)c2cc3ncccc3[nH]2)c2nccnc21 (atropisomer, axis not shown) [Example 26, (S)-(6-amino-5-(3-hydroxy-2,6-dimethylphenyl)-5H-pyrrolo[2,3-b]pyrazin-7-yl)(1H-pyrrolo[3,2-b]pyridin-2-yl)methanone]
≤ 200 | A (ΔTm (° C.) ≥ 5° C.) |  | Cc1ccc(O)c(C)c1-n1c(N)c(C(=O)c2cc3cc(N4CCN(C)CC4)ccc3[nH]2)c2nccnc21 (atropisomer, axis not shown) [Example 22, (R)-(6-amino-5-(3-hydroxy-2,6-dimethylphenyl)-5H-pyrrolo[2,3-b]pyrazin-7-yl)(5-(4-methylpiperazin-1-yl)-1H-indol-2-yl)methanone]
 | B (5 °C ≥ ΔTm (° C.)) |  | Cc1ccc(O)c(C)c1-n1c(N)c(C(=O)c2cc3ncccc3[nH]2)c2nccnc21 (atropisomer, axis not shown) [Example 27, (R)-(6-amino-5-(3-hydroxy-2,6-dimethylphenyl)-5H-pyrrolo[2,3-b]pyrazin-7-yl)(1H-pyrrolo[3,2-b]pyridin-2-yl)methanone]
 |  | ≥ 5 | Cc1cc2c(C(=O)c3nc4ccccc4[nH]3)c(N)n(-c3c(C)ccc(O)c3C)c2nc1C (atropisomer, axis not shown) [Example 11, (S)-(2-amino-1-(3-hydroxy-2,6-dimethylphenyl)-5,6-dimethyl-1H-pyrrolo[2,3-b]pyridin-3-yl)(1H-benzo[d]imidazol-2-yl)methanone]
 | B (5 °C ≥ ΔTm (° C.)) |  | Cc1ccc(O)c(C)c1-n1c(N)c(C(=O)c2cc3cc(CN4CCOCC4)ccc3[nH]2)c2nccnc21 (atropisomer, axis not shown) [Example 20, (R)-(6-amino-5-(3-hydroxy-2,6-dimethylphenyl)-5H-pyrrolo[2,3-b]pyrazin-7-yl)(5-(morpholinomethyl)-1H-indol-2-yl)methanone]
≤ 200 | A (ΔTm (° C.) ≥ 5° C.) |  | Cc1ccc(O)c(C)c1-n1c(N)c(C(=O)c2cc3occc3[nH]2)c2nc(C)c(C)nc21 (atropisomer, axis not shown) [Example 18, (R)-(6-amino-5-(3-hydroxy-2,6-dimethylphenyl)-2,3-dimethyl-5H-pyrrolo[2,3-b]pyrazin-7-yl)(4H-furo[3,2-b]pyrrol-5-yl)methanone]
 | B (5 °C ≥ ΔTm (° C.)) |  | Cc1ccc(O)c(C)c1-n1c(N)c(C(=O)c2cc3sccc3[nH]2)c2nccnc21 (atropisomer, axis not shown) [Example 6, (R)-(6-amino-5-(3-hydroxy-2,6-dimethylphenyl)-5H-pyrrolo[2,3-b]pyrazin-7-yl)(4H-thieno[3,2-b]pyrrol-5-yl)methanone]
 | B (5 °C ≥ ΔTm (° C.)) |  | Cc1ccc(O)c(C)c1-n1c(N)c(C(=O)c2cc3cnc(N4CCOCC4)cc3[nH]2)c2nc(C)c(C)nc21 (atropisomer, axis not shown) [Example 16, (R)-(6-amino-5-(3-hydroxy-2,6-dimethylphenyl)-2,3-dimethyl-5H-pyrrolo[2,3-b]pyrazin-7-yl)(6-morpholino-1H-pyrrolo[3,2-c]pyridin-2-yl)methanone]
≤ 200 |  | ≥ 5 | Cc1ccc(O)c(C)c1-n1c(N)c(C(=O)c2cc3sccc3[nH]2)c2nccnc21 (atropisomer, axis not shown) [Example 5, (S)-(6-amino-5-(3-hydroxy-2,6-dimethylphenyl)-5H-pyrrolo[2,3-b]pyrazin-7-yl)(4H-thieno[3,2-b]pyrrol-5-yl)methanone]
 |  | ≥ 5 | Cc1ccc(O)c(C)c1-n1c(N)c(C(=O)c2cc3cc(P(C)(C)=O)ccc3[nH]2)c2nccnc21 [Example 40, (6-amino-5-(3-hydroxy-2,6-dimethylphenyl)-5H-pyrrolo[2,3-b]pyrazin-7-yl)(5-(dimethylphosphoryl)-1H-indol-2-yl)methanone]
≤ 200 |  | ≥ 5 | Cc1ccc(O)c(C)c1-n1c(N)c(C(=O)c2cc3occc3[nH]2)c2nccnc21 (atropisomer, axis not shown) [Example 7, (S)-(6-amino-5-(3-hydroxy-2,6-dimethylphenyl)-5H-pyrrolo[2,3-b]pyrazin-7-yl)(4H-furo[3,2-b]pyrrol-5-yl)methanone]
 | B (5 °C ≥ ΔTm (° C.)) |  | Cc1ccc(O)c(C)c1-n1c(N)c(C(=O)c2cc3occc3[nH]2)c2nccnc21 (atropisomer, axis not shown) [Example 8, (R)-(6-amino-5-(3-hydroxy-2,6-dimethylphenyl)-5H-pyrrolo[2,3-b]pyrazin-7-yl)(4H-furo[3,2-b]pyrrol-5-yl)methanone]
≤ 200 | A (ΔTm (° C.) ≥ 5° C.) |  | Cc1ccc(O)c(C)c1-n1c(N)c(C(=O)c2cc3ccncc3[nH]2)c2nccnc21 (atropisomer, axis not shown) [Example 25, (R)-(6-amino-5-(3-hydroxy-2,6-dimethylphenyl)-5H-pyrrolo[2,3-b]pyrazin-7-yl)(1H-pyrrolo[2,3-c]pyridin-2-yl)methanone]
 |  | ≤ 5 | Cc1ccc(O)c(C)c1-n1c(N)c(C(=O)c2cc3ccccc3[nH]2)c2nccnc21 (atropisomer, axis not shown) [Example 2, (R)-(6-amino-5-(3-hydroxy-2,6-dimethylphenyl)-5H-pyrrolo[2,3-b]pyrazin-7-yl)(1H-indol-2-yl)methanone]
 |  | ≤ 5 | Cc1ccc(O)c(C)c1-n1c(N)c(C(=O)c2cc3ccncc3[nH]2)c2nccnc21 (atropisomer, axis not shown) [Example 24, (S)-(6-amino-5-(3-hydroxy-2,6-dimethylphenyl)-5H-pyrrolo[2,3-b]pyrazin-7-yl)(1H-pyrrolo[2,3-c]pyridin-2-yl)methanone]
 | B (5 °C ≥ ΔTm (° C.)) |  | Cc1cc2c(C(=O)c3nc4ccccc4[nH]3)c(N)n(-c3c(C)ccc(O)c3C)c2nc1C (atropisomer, axis not shown) [Example 12, (R)-(2-amino-1-(3-hydroxy-2,6-dimethylphenyl)-5,6-dimethyl-1H-pyrrolo[2,3-b]pyridin-3-yl)(1H-benzo[d]imidazol-2-yl)methanone]

SMILES | IC50 (human PKMYT1 enzyme) [nM] | ΔTm (° C.) (Myt1-KD) | ΔTm at 100 µM (Myt1-KD) [°C]
Cc1ccc(O)c(C)c1-n1c(N)c(C(=O)c2cc3sccc3[nH]2)c2nc(C)c(C)nc21 [Example 13, (S)-(6-amino-5-(3-hydroxy-2,6-dimethylphenyl)-2,3-dimethyl-5H-pyrrolo[2,3-b]pyrazin-7-yl)(4H-thieno[3,2-b]pyrrol-5-yl)methanone] | ≤ 200 | A (ΔTm (° C.) ≥ 5° C.) | 
Cc1ccc(O)c(C)c1-n1c(N)c(C(=O)c2cc3sccc3[nH]2)c2nc(C)c(C)nc21 [Example 14, (R)-(6-amino-5-(3-hydroxy-2,6-dimethylphenyl)-2,3-dimethyl-5H-pyrrolo[2,3-b]pyrazin-7-yl)(4H-thieno[3,2-b]pyrrol-5-yl)methanone] |  | B (5 °C ≥ ΔTm (° C.)) | 
Cc1ccc(O)c(C)c1-n1c(N)c(C(=O)c2nc3ccccc3[nH]2)c2cccnc21 [Example 3, (S)-(2-amino-1-(3-hydroxy-2,6-dimethylphenyl)-1H-pyrrolo[2,3-b]pyridin-3-yl)(1H-benzo[d]imidazol-2-yl)methanone] | ≤ 200 | A (ΔTm (° C.) ≥ 5° C.) | 
Cc1ccc(O)c(C)c1-n1c(N)c(C(=O)c2nc3ccccc3[nH]2)c2cccnc21 (atropisomer, axis not shown) [Example 4, (R)-(2-amino-1-(3-hydroxy-2,6-dimethylphenyl)-1H-pyrrolo[2,3-b]pyridin-3-yl)(1H-benzo[d]imidazol-2-yl)methanone] |  |  | ≤ 5
